≈ marks a conversion by molar mass, not a printed value. Read-outs that look alike come from different tables or passages of the source.
Columns and labels:
[1] = Method: NIM is used to treat extra-articular and articular inflammatory forms. […] Phase solubility study was carried out according to the method described by Higuchi to study the influence of the complexation of different cyclodextrins on the solubility of NIM. Native cyclodextrins, modified cyclodextrins, cyclodextrin copolymers and cyclodextrin tetrapolymers were used. The cyclodextrin tetrapolymer, based on 35% of alpha-cyclodextrin, 35% beta-cyclodextrin and 30% gamma-cyclodextrin, is synthesized by direct melt polycondensation according to the example 1 and the ratio cyclodextrin/citric acid is 1/3.
Phase Solubility Method: Higuchi's Method
Suspensions were shaken at a temperature of 37° C. on a rotary flask shaker for 7 days and supernatants were filtered through polycarbonate membrane (0.45 μm pore size).

[2] = native cyclodextrins; cited from earlier work

SMILES	Kc [1] [mM⁻¹]	[Nimésulid] max. [1] [mg/mL]	solubility in water [2] [g/L]	[Nimésulid] max. ([1]; 7 days) [mg/mL]
OC[C@H]1O[C@@H]2O[C@H]3[C@H](O)[C@@H](O)[C@@H](O[C@H]4[C@H](O)[C@@H](O)[C@@H](O[C@H]5[C@H](O)[C@@H](O)[C@@H](O[C@H]6[C@H](O)[C@@H](O)[C@@H](O[C@H]7[C@H](O)[C@@H](O)[C@@H](O[C@H]1[C@H](O)[C@H]2O)O[C@@H]7CO)O[C@@H]6CO)O[C@@H]5CO)O[C@@H]4CO)O[C@@H]3CO [alpha-CD, α-cyclodextrin]	0.045	0.07708	127 (≈ 131 mM)	
OC[C@H]1O[C@@H]2O[C@H]3[C@H](O)[C@@H](O)[C@@H](O[C@H]4[C@H](O)[C@@H](O)[C@@H](O[C@H]5[C@H](O)[C@@H](O)[C@@H](O[C@H]6[C@H](O)[C@@H](O)[C@@H](O[C@H]7[C@H](O)[C@@H](O)[C@@H](O[C@H]8[C@H](O)[C@@H](O)[C@@H](O[C@H]1[C@H](O)[C@H]2O)O[C@@H]8CO)O[C@@H]7CO)O[C@@H]6CO)O[C@@H]5CO)O[C@@H]4CO)O[C@@H]3CO [beta-CD, β-cyclodextrin]	0.473			0.09249
OC[C@H]1O[C@@H]2O[C@H]3[C@H](O)[C@@H](O)[C@@H](O[C@H]4[C@H](O)[C@@H](O)[C@@H](O[C@H]5[C@H](O)[C@@H](O)[C@@H](O[C@H]6[C@H](O)[C@@H](O)[C@@H](O[C@H]7[C@H](O)[C@@H](O)[C@@H](O[C@H]8[C@H](O)[C@@H](O)[C@@H](O[C@H]9[C@H](O)[C@@H](O)[C@@H](O[C@H]1[C@H](O)[C@H]2O)O[C@@H]9CO)O[C@@H]8CO)O[C@@H]7CO)O[C@@H]6CO)O[C@@H]5CO)O[C@@H]4CO)O[C@@H]3CO [gamma-CD, γ-cyclodextrin]	0.0646	0.1449	236 (≈ 182 mM)	

From patent US8865887B2, “Method for synthesizing calixarene and/or cyclodextrin copolymers, terpolymers and tetrapolymers, and uses thereof” (priority 2009, dated 2014)
